Values quoted from earlier work, collected in paper PMC12623819 (Scientific Reports, 2025).

Columns and labels:
[1] = system: cell surface-expressed nectin-4
[2] = system: nectin-4-expressing cells; conditions: in vitro

enfortumab vedotin: ADC comprising a human nectin-4 antibody conjugated to the microtubule-disrupting agent MMAE
binding to cell surface-expressed nectin-4 [1]: high affinity | induction of cell death [2]: induce cell death in a dose-dependent manner
